Test results: article PMC11876671, “Investigating blood–brain barrier penetration and neurotoxicity of natural products for central nervous system drug development” (Scientific Reports, 2025)
Read-outs that look alike come from different tables or passages of the source.

Tests used:
[1] = tested on: GFP-labeled iPSC-derived human cortical glutamatergic neurons; experiment: cells; format: cell-based; settings: for inhibition of cortical neurite outgrowth (total neurite length): 24 and 48 h treatment, in words
[2] = tested on: GFP-labeled iPSC-derived human cortical glutamatergic neurons; settings: for AC50: read-out: Viability AC50 (48hr); for effect on number of objects: in words
in vitro = settings: PAMPA, PAMPA-BBB Pe
[3] = tested on: human glial and neuroblastoma cell lines; settings: malignant glioma tumor cells; cited from earlier work
[4] = tested on: GFP-labeled iPSC-derived human cortical glutamatergic neurons; experiment: cells; settings: Neuron, 48 h
[5] = tested on: glioblastoma multiforme (GBM); settings: mouse, in vivo, ip; cited from earlier work
offspring neurogenesis = settings: rat, in vivo, po; cited from earlier work
[6] = Table S1, 60 min, room temperature, 0.05 mM
[7] = Homo sapiens, Neuron, rounded values, read-out: AC50 (neurite outgrowth inhibition)
[8] = Homo sapiens, Neuron, total neurite length, 48 h treatment, read-out: TNL AC50 (48 h)
[9] = Table 1, 60 min, room temperature, 0.05 mM
[10] = Table S2: compounds exhibiting moderate to high PAMPA-BBB permeability
[11] = read-out: Viability AC50 (48 h)
[12] = Homo sapiens, Neuron, Table S1, total neurite length, 48 hr, head prints no unit, µM per Table 1 and Fig. 5, read-out: TNL AC50 (48 hr)
[13] = read-out: Viability AC50 (48hr)

Molecule | AC50 [1, 7] [µM] | AC50 [1, 8] [µM] | PAMPA-BBB Pe [9] | PAMPA-BBB Pe [10] | Viability AC50 (48 h) ([2]; 48 h treatment) | Papp (in vitro; [6]) [×10⁻⁶ cm/s] | AC50 [4, 11] [µM] | AC50 [1, 12] [µM] | further results
2 ,4 -DIHYDROXYCHALCONE | – | – | – | – | – | – | – | – | AC50 ([1]; Table S1, total neurite length, 48 hr, head prints no unit, µM per Table 1 and Fig. 5, read-out: TNL AC50 (48 hr)): 16.9 µM; PAMPA-BBB Pe [6]: 222.92 10^-6 cm/sec; AC50 ([2]; Table S1, 48 hr, head prints no unit, µM per Table 1 and Fig. 5): 20.9 µM
COc1ccc(-c2cc(=O)c3ccccc3o2)cc1OC [3’,4’-dimethoxyflavone] | 0.7 | 0.759 | 249.21 10 × 10^− 6 cm/sec | 249 10^-6 cm/sec | inactive | 249 | – | – | –
C/C=C(\C)C(=O)N[C@@H](c1ccccc1)[C@@H](O)C(=O)O[C@H]1C[C@@]2(O)[C@@H](OC(=O)c3ccccc3)[C@@H]3[C@]4(OC(C)=O)CO[C@@H]4C[C@H](O)[C@@]3(C)C(=O)[C@H](OC(C)=O)C(=C1C)C2(C)C [Cephalomannine] | 0.7 | 0.688 | 78.57 10 × 10^− 6 cm/sec | 79 10^-6 cm/sec | inactive | 78.6 | – | – | cytotoxicity relative to taxol (less cytotoxic) [3]: ~ 35%
COc1cc(-c2cc(=O)c3c(O)cc(O)cc3o2)ccc1O [Chrysoeriol] | 2.2 | 2.22 | 178.56 10 × 10^− 6 cm/sec | – | inactive | 179 | – | – | –
CC(=O)O[C@H]1[C@H]2O[C@]23[C@@H]2CC[C@@H]4C[C@@H](O)CC[C@]4(C)[C@H]2CC[C@]3(C)[C@H]1c1ccc(=O)oc1 [Cinobufagin] | – | – | – | – | – | – | 0.093 | – | AC50 ([1]; Homo sapiens, Neuron, 48 h, read-out: TNL AC50 (48 h)): 0.618 µM; AC50 ([1]; Homo sapiens, Neuron, read-out: AC50 (neurite outgrowth inhibition)): 0.6 µM; decrease in luminescence intensity of the brain tumor [5]: 70%; Papp (in vitro): 45.4 ×10⁻⁶ cm/s
O=c1oc2c(O)c(O)cc3c(=O)oc4c(O)c(O)cc1c4c23 [Ellagic acid] | 3.1 | 3.05 | 119.5 10 × 10^− 6 cm/sec | 120 10^-6 cm/sec | – | 120 | 4 | – | inhibition of cortical neurite outgrowth (total neurite length) [1]: inhibited cortical neurite outgrowth; effect on number of objects ([2]; 48 h treatment): minimal effects
C=C(C)[C@@H]1CCC2=CC(=O)C[C@@H](C)[C@]2(C)C1 [Nootkatone] | – | – | – | 63 10^-6 cm/sec | – | 63.3 | – | 13.1 | AC50 [4, 13]: 3.98 µM
COc1ccc2c(c1OC)C(=O)O[C@@H]2[C@H]1c2c(cc3c(c2OC)OCO3)CCN1C [Noscapine, reference compound] | 1.1 | 1.06 | – | – | – | – | 11.6 | 1.06 | PAMPA-BBB Pe (PAMPA): 74.54 10 × 10^− 6 cm/sec; AC50 [4, 13]: 11.6 µM; Papp (in vitro): 74.5 ×10⁻⁶ cm/s
C/C(=C\c1csc(C)n1)[C@@H]1C[C@@H]2O[C@]2(C)CCC[C@H](C)[C@H](O)[C@@H](C)C(=O)C(C)(C)[C@@H](O)CC(=O)O1 [Patupilone] | – | 0.007 | 10.52 10 × 10^− 6 cm/sec | – | inactive | 10.5 | – | 0.0068 | Papp (in vitro; [10]): 11 ×10⁻⁶ cm/s
COc1cc(/C=C/C(=O)N2CCC=CC2=O)cc(OC)c1OC [Piperlongumine] | – | 3.74 | 90.26 10 × 10^− 6 cm/sec | – | Inactive | 90.3 | – | – | Papp (in vitro; [10]): 90 ×10⁻⁶ cm/s
CC1=CC(=O)c2c(O)cccc2C1=O [Plumbagin] | 0.9 | 0.927 | 68.8 10 × 10^− 6 cm/sec | 69 10^-6 cm/sec | – | 68.8 | 1.32 | – | inhibition of cortical neurite outgrowth (total neurite length) [1]: inhibited cortical neurite outgrowth; effect on number of objects ([2]; 48 h treatment): minimal effects
COC(=O)[C@H]1[C@H]2C[C@@H]3c4[nH]c5cc(OC)ccc5c4CCN3C[C@H]2C[C@@H](OC(=O)c2cc(OC)c(OC)c(OC)c2)[C@@H]1OC [Reserpine, reference compound] | – | – | – | – | – | – | – | 31.8 | PAMPA-BBB Pe (PAMPA): 90 10^-6 cm/sec; AC50 [4, 13]: 35.2 µM; Papp (in vitro): 90.1 ×10⁻⁶ cm/s
COc1cc2c(c3oc4cccc(O)c4c(=O)c13)[C@@H]1C=CO[C@@H]1O2 [Sterigmatocystin] | – | – | – | – | – | – | – | – | AC50 ([1]; read-out: AC50 (neurite outgrowth inhibition)): 2.3 µM; AC50 ([1]; read-out: TNL AC50 (48 h)): 2.32 µM; AC50 ([1]; read-out: TNL AC50 (48 hr)): 2.32 µM; PAMPA-BBB Pe (PAMPA): 221 10 × 10^− 6 cm/sec; Viability AC50 (48 h) [2]: inactive; Papp (in vitro): 221 ×10⁻⁶ cm/s; adverse effects on offspring neurogenesis (offspring neurogenesis): no adverse effects
C=CC[C@@H]1/C=C(\C)C[C@H](C)C[C@H](OC)[C@H]2O[C@@](O)(C(=O)C(=O)N3CCCC[C@H]3C(=O)O[C@H](/C(C)=C/[C@@H]3CC[C@@H](O)[C@H](OC)C3)[C@H](C)[C@@H](O)CC1=O)[C@H](C)C[C@@H]2OC [Tacrolimus, reference compound] | – | 2.65 | 154.13 10 × 10^− 6 cm/sec | 154 10^-6 cm/sec | – | 154 | 4.19 | 2.65 | AC50 [4, 13]: 4.19 µM
CC(/C=C/C(=O)NO)=C\[C@@H](C)C(=O)c1ccc(N(C)C)cc1 [Trichostatin A] | 1.7 | 1.66 | 54.74 10 × 10^− 6 cm/sec | 55 10^-6 cm/sec | – | 54.7 | 0.472 | – | –
CC[C@]1(O)C[C@H]2CN(CCc3c([nH]c4ccccc34)[C@@](C(=O)OC)(c3cc4c(cc3OC)N(C=O)[C@H]3[C@@](O)(C(=O)OC)[C@H](OC(C)=O)[C@]5(CC)C=CCN6CC[C@]43[C@@H]65)C2)C1 [Vincristine, reference compound] | – | – | – | – | – | – | – | – | AC50 ([1]; read-out: TNL AC50 (48 hr)): 30.4 µM; PAMPA-BBB Pe (PAMPA): 21.19 10^-6 cm/sec; AC50 [2]: 37.2 µM
